Drawing on PubChem BioAssay (NCI), this text covers GI50 and TGI for eight molecules.

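Method: 48-hour compound exposure of cells in 96-well plates, five concentrations, linear interpolation of endpoints. GI50 = concentration required for 50% inhibition of growth. The concentration for full growth arrest is given as TGI.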 A value given as a limit tells only on which side of the number the result lay.

Some test systems named below: DU-145 prostate; MOLT-4 leukemia; COLO 205 colon; NCI-H460 lung; NCI-H23 lung; SNB-19 CNS; CCRF-CEM leukemia; SF-268 CNS; NCI/ADR-RES ovarian; SW-620 colon.
Assay in all cases: NCI-60 cell line screen, 48 h

`COc1cc(NCc2ccccc2O)c2ncccc2c1`: the GI50 with DU-145 prostate was 41.7 µM; with MOLT-4 leukemia, 18.9 µM; with COLO 205 colon it was 19.7 µM; in the assay on NCI-H460 lung it was 15.8 µM; in the assay on NCI-H23 lung it was 22.5 µM; in the assay on SNB-19 CNS it was 31.8 µM. In addition, the GI50 in the assay on CCRF-CEM leukemia is 17 µM; in the assay with SF-268 CNS it was 22.5 µM; in the assay on NCI/ADR-RES ovarian, 23.2 µM; with SW-620 colon, 32.2 µM. Also, the TGI in the assay on DU-145 prostate was greater than 100 µM; with MOLT-4 leukemia, greater than 100 µM; in the assay on COLO 205 colon, 77.2 µM; in the assay on NCI-H460 lung, greater than 100 µM; in the assay on NCI-H23 lung, 97.3 µM; with SNB-19 CNS it was greater than 100 µM. The TGI is greater than 100 µM with CCRF-CEM leukemia, greater than 100 µM with SF-268 CNS, 85.3 µM with NCI/ADR-RES ovarian and greater than 100 µM in the assay on SW-620 colon.
`CCc1c(O)c2c(c(O)c1C(C)=O)C(=O)c1c(cc(O)c(C(=O)O)c1C(=O)O)C2=O`: the TGI with DU-145 prostate, in the assay on MOLT-4 leukemia, in the assay with COLO 205 colon, with NCI-H460 lung, in the assay on NCI-H23 lung and with SNB-19 CNS was greater than 100 µM in each case. Also, the TGI in the assay on CCRF-CEM leukemia, in the assay with SF-268 CNS, in the assay on NCI/ADR-RES ovarian and in the assay with SW-620 colon was greater than 100 µM in each case.
Turning to `O=C(Nc1ccc(Cl)cc1)c1cc(S(=O)(=O)Nc2nnc(-c3ccccc3)c(-c3ccccc3)n2)c(SCc2ccccc2)cc1Cl`, the GI50 is 37.2 µM in the assay on DU-145 prostate; 17.4 µM in the assay on MOLT-4 leukemia; 23.8 µM in the assay on COLO 205 colon; 25.2 µM in the assay with NCI-H460 lung; 24.6 µM in the assay with NCI-H23 lung; 37.9 µM with SNB-19 CNS. Further, the GI50 in the assay on CCRF-CEM leukemia was 29.7 µM; in the assay with SF-268 CNS, 26.9 µM; in the assay with NCI/ADR-RES ovarian, greater than 50.2 µM; with SW-620 colon, 38.1 µM. The TGI in the assay with DU-145 prostate was greater than 62.1 µM; in the assay on MOLT-4 leukemia it was greater than 60.4 µM; in the assay with COLO 205 colon it was greater than 60.3 µM; in the assay on NCI-H460 lung, 81.8 µM; in the assay on NCI-H23 lung, 53.7 µM; in the assay on SNB-19 CNS, greater than 67 µM. The TGI was 76.8 µM with CCRF-CEM leukemia, greater than 68.3 µM in the assay on SF-268 CNS, greater than 80.2 µM with NCI/ADR-RES ovarian and greater than 100 µM in the assay with SW-620 colon.
As for `CC(C)(C)OC(=O)CN1CCc2c(sc3ncnc(N/N=C/c4cccc5ccccc45)c23)C1`, the GI50 in the assay on DU-145 prostate is 4.73 µM; in the assay on MOLT-4 leukemia, 1.26 µM; in the assay with COLO 205 colon it was 1.07 µM; in the assay with NCI-H460 lung, 1.62 µM; in the assay on NCI-H23 lung it was 4.19 µM; with SNB-19 CNS, 4.73 µM. Also, the GI50 is 1.56 µM in the assay on CCRF-CEM leukemia, 3.59 µM in the assay with SF-268 CNS, 3.55 µM with NCI/ADR-RES ovarian and 1.8 µM in the assay with SW-620 colon. For the same molecule, the TGI in the assay on DU-145 prostate turned out to be 31.9 µM; in the assay on MOLT-4 leukemia it was 9.39 µM; with COLO 205 colon it was 3.93 µM; in the assay with NCI-H460 lung, 6.22 µM; with NCI-H23 lung it was 17.4 µM; in the assay on SNB-19 CNS it was 32.1 µM. The TGI with CCRF-CEM leukemia was greater than 33.3 µM; in the assay on SF-268 CNS, 24.3 µM; with NCI/ADR-RES ovarian it was 14.5 µM; with SW-620 colon, 7.96 µM.
Turning to `COC(=O)C1(C2CC/C(C)=C/CC/C(C)=C/CC[C@@]3(C)O[C@@H]3C2)CC1` (stereo not given in full), the GI50 with DU-145 prostate was 33.6 µM; with MOLT-4 leukemia, 29.3 µM; with COLO 205 colon, greater than 56.5 µM; in the assay on NCI-H460 lung, 35.5 µM; with NCI-H23 lung it was 46.1 µM; in the assay on SNB-19 CNS, greater than 100 µM. Also, the GI50 was 25.7 µM in the assay on CCRF-CEM leukemia, greater than 100 µM with SF-268 CNS, greater than 55 µM in the assay with NCI/ADR-RES ovarian and 40 µM in the assay on SW-620 colon. Also, the TGI in the assay on DU-145 prostate, in the assay with MOLT-4 leukemia, in the assay on COLO 205 colon, with NCI-H460 lung, in the assay with NCI-H23 lung and in the assay on SNB-19 CNS was greater than 100 µM throughout. In addition, the TGI with CCRF-CEM leukemia was 65.3 µM; in the assay on SF-268 CNS it was greater than 100 µM; with NCI/ADR-RES ovarian, greater than 100 µM; with SW-620 colon, greater than 100 µM.
Turning to `Cc1cccc2c1O/C(=C\c1ccc([N+](=O)[O-])o1)C2=O`, the GI50 is 0.659 µM in the assay on DU-145 prostate; 1.52 µM in the assay with MOLT-4 leukemia; 0.66 µM with COLO 205 colon; 0.817 µM in the assay with NCI-H460 lung; 1.35 µM in the assay on NCI-H23 lung; 2.7 µM in the assay on SNB-19 CNS. In addition, the GI50 was 0.285 µM with CCRF-CEM leukemia, 1.56 µM in the assay with SF-268 CNS, 2.54 µM in the assay with NCI/ADR-RES ovarian and 0.223 µM in the assay on SW-620 colon. Also, the TGI is 2.12 µM in the assay with DU-145 prostate; 5.7 µM in the assay on MOLT-4 leukemia; 2.14 µM with COLO 205 colon; 2.5 µM in the assay with NCI-H460 lung; 3.41 µM in the assay on NCI-H23 lung; greater than 33 µM in the assay with SNB-19 CNS. Also, the TGI in the assay with CCRF-CEM leukemia was 1.05 µM; in the assay on SF-268 CNS, 3.94 µM; in the assay on NCI/ADR-RES ovarian it was greater than 60.4 µM; with SW-620 colon, 0.864 µM.
As for `O=C1c2ccn(CCCCN3CCCCC3)c2C(=O)c2c1c(O)c1ccccc1c2O`, the GI50 in the assay with DU-145 prostate was 14.1 µM; with MOLT-4 leukemia, 3.49 µM; in the assay with COLO 205 colon it was 5.8 µM; in the assay with NCI-H460 lung it was 3.88 µM; in the assay on NCI-H23 lung it was 23.1 µM; in the assay on SNB-19 CNS, 19.1 µM. The GI50 in the assay with CCRF-CEM leukemia was 1.95 µM; in the assay on SF-268 CNS, 14.9 µM; with NCI/ADR-RES ovarian it was 14.4 µM; with SW-620 colon, 3.18 µM. The TGI was 30.3 µM in the assay on DU-145 prostate; greater than 100 µM in the assay on MOLT-4 leukemia; greater than 52.2 µM in the assay with COLO 205 colon; 16.3 µM in the assay on NCI-H460 lung; greater than 48.3 µM with NCI-H23 lung; greater than 90.5 µM with SNB-19 CNS. The TGI in the assay on CCRF-CEM leukemia came to 4.61 µM; in the assay on SF-268 CNS, 42.7 µM; with NCI/ADR-RES ovarian it was 55.6 µM; with SW-620 colon it was 10.6 µM.
Turning to `C=C1CC2(CCCC3(CC(=C)C(=O)O3)C2(C)C)OC1=O` (stereo not given), the TGI with DU-145 prostate was 15.8 µM; in the assay on MOLT-4 leukemia, 1.03 µM; with COLO 205 colon it was 4.61 µM; with NCI-H460 lung, 46.3 µM; in the assay with NCI-H23 lung it was 12.1 µM; with SNB-19 CNS, 32.9 µM. Besides, the TGI in the assay on CCRF-CEM leukemia turned out to be 5.74 µM; in the assay with SF-268 CNS, 55.5 µM; in the assay on NCI/ADR-RES ovarian, 27.9 µM; with SW-620 colon, 4.26 µM.
